Columns and labels:
in vivo = conditions: NIH-III, mouse, ip, 186 mg/kg
Description: M18 was quantified by absorbance detection with reference to an external standard calibration curve.
Concentration-time data were analyzed by non-compartmental analysis using Phoenix WinNonlin (ver 6.4, Build 6.4.0768 Pharsight, United States); all AUC values were extrapolated to infinity using the linear trapezoidal rule.
SN30000, M14 and M13 were quantified by LC-MS/MS using stable isotope internal standards, while M18 was quantified by absorbance detection using external standard calibration curves.

NIH-III mice [1] = experiment: Mouse toxicity: MTD, survival and body weight loss after single i.p. doses; assay type: in vivo; conditions: for Survival: 14 days
Description: (§1) Mouse toxicity SN30000 and metabolites M14 and M18: survival and body weight loss following single i.p. doses to NIH-III mice.
(§2) Cmpd Dose Body weight nadir Body weight nadir
(§3) (µmol/kg) Survivala Survivala
(§4) Day Weight loss (%)b Day Weight loss (%)b […]
(§5) a Survival reported as a fraction of total nu mber of animal treated at a giv en dose, with an observation time of 14 days. Deaths were predominantly due to humane ter mination because of persistent clinical signs or body weight loss > 15% of pretreatment values. b Body weig ht loss at nadir, relative to pre-treatment values. Values are mean and errors are […]
(§6) c Data from Gu et al., 2014 d Mouse died <24 hr after dosing.

[2] = as above; assay type: in vivo, NIH-III mice; conditions: mouse, in vivo, ip, NIH-III mice; for MTD at 14 days: both sexes, single i.p. dose
Description: as §1, §2, §3, §4, §5, §6

CHO/POR cells = experiment: Redox cycling: non-respiratory O2 consumption and H2O2 generation; assay type: cell-based; conditions: rotenone-inhibited aerobic CHO/POR cells, cumulative addition
Description: The Chinese hamster ovary cell line 51D1.3 (herein called CHO) and a stable transfectant expressing a soluble form of human P450 oxidoreductase (51D1.3/sPOR, herein called CHO/POR) ([Gu et al., 2009]), were grown in spinner flasks in αMEM plus 5% fetal bovine serum. Late log phase cultures were harvested by centrifugation, resuspended at 5 × 10^5 cells/mL in phenol red-free high-glucose DMEM (Invitrogen) supplemented with 4 mM Glutamax-1, 1 mM sodium pyruvate and 5% FBS. Stirred cell suspensions (2 mL) were transferred to an OXYBOROS O2K oxygraph for simultaneous polarographic measurement of non-respiratory O2 consumption and fluorimetric measurement of H2O2 generation as previously ([Hunter et al., 2012]). Bovine liver superoxide dismutase (10 U), horseradish peroxidase (10 U), Amplex UltraRed (50 nmol) and rotenone (1 nmol), all from Molecular Probes Invitrogen (Eugene, OR), were injected and cumulative drug additions (from saline stock solutions) were made every ∼5 min once endogenous rates had stabilized. Signals were recorded every 2 s, and flux derivatives were estimated ∼2 min after each addition using a Savitzky–Golay smoothing filter (40 data point window) in DATLAB version 4.3.
Supplementary Figure 4. Time-dependent changes in oxy gen consu mption and H2O2 formation rates induced by SN30000 in rotenone-inhibited CHO/POR cell suspensions, monitored with an OXYBOROS O2K oxygraph. Conditions of the experiment were identical to Fig. 5 except that SN30000 was added as a single bolus to separate cell suspension, rather than by cu mulative addition. A: Representative traces for oxygen consu mption and H2O2 formation rates for a single culture when SN30000 was added to a final concentration of 600 µM, at 4 min. Peak rates were established within 2 min, followed by a decline to a new steady state at approximately 1/3rd of the maximu m rate. Cell viability was > 97% by try pan […]
killing. […]

SiHa cells = experiment: Oxygen consumption rate, Seahorse XFe96 analyser; assay type: cell-based, human; conditions: 200 µM, mitochondrial stress test
Description: (OCR) of the human cervical carcinoma cell line SiHa and a previously described (Guise et al., 2007) POR-overexpressing transfectant SiHa/POR, determined using a Seahorse XFe96 Analyser (Agilent). Cells were passaged in αMEM plus 5% FCS, with 1 µM puromycin to maintain POR expression in the SiHa/POR cell line. Cells were ty pically seeded at 4×10^4 cells/well in Seahorse 96 well plates (without puromycin) and ~ 18 hr later the medium was changed to Seahorse medium with 10 mM glucose and 2 mM glutamine (SMGG) adjusted to pH 7.35 (150 µl/well). Plates were degassed to remove CO2, and inhibitors were added serially using the Seahorse injectors (25 µl/injection) with rotenone (final concentration 0.5 µM) typically added at the start of the 30 min equilibration in the flux analyser. OCR was monitored for three 3 min periods following each drug addition. […]
injection 1 and at each subsequent injection to maintain concentrations at 200 µM continuously during the test. The control received equivalent injections of SMGG without drugs. In all cases (including controls), injection 2 added oligomycin to give 0.5 µM, injection 3 added carbonyl cyanide […] (FCCP) to 0.5 µM, and injection 4 added rotenone and antimy cin to 1 µM each. V alues are means and errors are standard deviations, for 6 replicate cultures. […]
suppressed by M14, both in the presence (injection 1) and absence (injection 4) of respiratory […]
presence or absence of 0.5 µM rotenone when SN30000 is added cumulatively to give the indicated concentrations. Values are means and SEM for 5 replicate cultures. The fall in OCR after transient stimulation at each addition of SN30000 is consistent with the pattern for CHO/POR cells in Supplementary Fig. 4A.
C: Concentration dependence of increases in OCR by SiHa/POR cells, measured at the first […]
effects noted above. Left panel: SN30000. Right panel: TPZ. Values are means and errors are […]

NIH-III mice [3] = experiment: Core body (rectal) temperature and acute clinical signs after dosing; assay type: in vivo; conditions: for Initial rate of temperature loss (rectum): i.p. SN30000 186 mg/kg, TPZ 31.7 mg/kg, M14 135 mg/kg
Description: Supplementary Figure 3. Initial rates of core temperature decrease in (untreated) NIH-III mice post- mortem: co mparison with initial temperature change ante- mortem following treatment with benzotriazine oxides at their MTD. Temperature was measured in rectu m and liver over 15 min. Initial rates of temperature loss (°C/min) were: post- mortem (rectum):
(rectum) 0.33. The rectal temperature loss following dosing with M14 (135 mg/kg) was 0.6 °C/min (not shown for clarity). The drug-induced changes are redrawn from Fig. 4.

[4] = Rectal temperature and MTD in rats; assay type: in vivo; conditions: rat, in vivo, iv; Wistar rats, single i.v. dose
Urinary excretion = assay type: in vivo, NIH-III mice; conditions: for Urinary excretion, % of administered dose: 24 h
Description: Mice (20–25 g body weight) were dosed i.p. or by slow bolus (10–20 s) i.v. injection via a lateral tail vein, with co-administration of ^3H-mannitol (0.025 μmol/kg; 67 MBq/g) in some studies as a marker of renal function. For evaluation of acute toxicity, mice were observed continuously for 3 h after dosing, and their activity rated on a lethargy score from 0 representing no change in activity to 5 representing animals that were moribund and required culling. For MTD studies, the animals were checked daily for clinical signs of toxicity and body weight change for 2 weeks. In some studies rectal temperature changes after dosing were measured using a BAT-12 digital microprobe thermometer (Physitemp Instruments, Clifton, NJ, United States) at the times specified in the figures. Blood samples were collected from mice at various times by cardiac puncture, seconds after cervical dislocation, into ice-cold tubes containing K2EDTA. These were placed on ice immediately after collection and centrifuged (3,000 g, 3 min) within 10 min to harvest plasma. Plasma and tissues were rapidly frozen in liquid nitrogen before storage at -80°C for subsequent bioanalysis. Urine samples were collected from mice housed individually in metabolic cages (Minor Metabowl, Jencons, United Kingdom; one animal per cage) with continuous access to food and water.

[5] = in vivo, i.p. SN30000 186 mg/kg, plasma, non-tumour-bearing mice
[6] = in vivo, Elimination half-life, i.p. SN30000 186 mg/kg, all tissues except tumors
[7] = in vivo, Terminal T1/2, i.p. SN30000 186 mg/kg, HT29 tumour, tumour-bearing mice
[8] = in vivo, Terminal T1/2, i.p. SN30000 186 mg/kg, brain, non-tumour-bearing mice
[9] = in vivo, Terminal T1/2, i.p. SN30000 186 mg/kg, liver, HT29 tumour-bearing mice
[10] = in vivo, Terminal T1/2, i.p. SN30000 186 mg/kg, liver, non-tumour-bearing mice
[11] = in vivo, Terminal T1/2, i.p. SN30000 186 mg/kg, plasma, HT29 tumour-bearing mice
[12] = in vivo, Terminal T1/2, i.p. SN30000 186 mg/kg, plasma, non-tumour-bearing mice
[13] = in vivo, i.p. SN30000 186 mg/kg, plasma, HT29 tumour-bearing mice

| SMILES | Tmax (in vivo; in vivo) [min] | Cmax (in vivo; [5]) [µM] | half-life (in vivo; [6]) [min] | half-life (in vivo; [7]) [min] | half-life (in vivo; [8]) [min] | half-life (in vivo; [9]) [min] | half-life (in vivo; [10]) [min] | half-life (in vivo; [11]) [min] | half-life (in vivo; [12]) [min] | Body weight nadir, Weight loss (NIH-III mice [1]; female, 562 µmol/kg i.p.) | Survival (NIH-III mice [1]; female, 562 µmol/kg i.p.) | MTD at 14 days [2] [µmol/kg] | MTD at 14 days ([2]; equivalent to 562 μmol/kg) [mg/kg] | Non-respiratory O2 consumption and H2O2 generation (redox cycling) (CHO/POR cells) | Effect on oxygen consumption rate (OCR) (SiHa cells) | Initial rate of temperature loss (rectum) (NIH-III mice [3]) [°C/min] | Cmax (in vivo; [13]) [µM] | further results |
| --- | --- | --- | --- | --- | --- | --- | --- | --- | --- | --- | --- | --- | --- | --- | --- | --- | --- | --- |
| c1c2c(cc3nc(CCCN4CCOCC4)nnc13)CCC2 [M13] |  |  |  |  |  |  |  |  |  |  |  |  |  |  |  |  |  | half-life (in vivo; HT29 tumour, Terminal T1/2, i.p. SN30000 186 mg/kg, tumour-bearing mice): 126 min; half-life (in vivo; all tissues except tumors, Elimination half-life, i.p. SN30000 186 mg/kg): ~30 min; half-life (in vivo; brain, Terminal T1/2, i.p. SN30000 186 mg/kg, non-tumour-bearing mice): 34.9 min; Tmax (in vivo): ≤ 5 min; half-life (in vivo; liver, Terminal T1/2, i.p. SN30000 186 mg/kg, HT29 tumour-bearing mice): 52.4 min; half-life (in vivo; liver, Terminal T1/2, i.p. SN30000 186 mg/kg, non-tumour-bearing mice): 42.1 min; half-life (in vivo; plasma, Terminal T1/2, i.p. SN30000 186 mg/kg, HT29 tumour-bearing mice): 53.2 min; half-life (in vivo; plasma, Terminal T1/2, i.p. SN30000 186 mg/kg, non-tumour-bearing mice): 42.4 min |
| [O-][n+]1nc(CCCN2CCOCC2)nc2cc3c(cc21)CCC3 [M14] | ≤ 5 | 36.1 ± 5.5 | ~30 | 94.8 | 32.1 | 42.7 | 40.5 | 40.6 | 37.8 | 2.6 ± 0.4% | 3/3 | 562 | 177 | much lower rates than for SN30000 | suppressed | 0.6 |  | Body weight nadir, Day (NIH-III mice [1]; female, 562 µmol/kg i.p.): 3; Survival (NIH-III mice [1]; female, 750 µmol/kg i.p.): 0/1; Body weight nadir, Day (NIH-III mice [1]; male, 562 µmol/kg i.p.): 1; Body weight nadir, Weight loss (NIH-III mice [1]; male, 562 µmol/kg i.p.): 0.7 ± 0.5%; Survival (NIH-III mice [1]; male, 562 µmol/kg i.p.): 3/3; Survival (NIH-III mice [1]; male, 750 µmol/kg i.p.): 0/2; Body weight nadir, Day (NIH-III mice [1]; male, 1000 µmol/kg i.p.): 1; Body weight nadir, Weight loss (NIH-III mice [1]; male, 1000 µmol/kg i.p.): 2.0%; Survival (NIH-III mice [1]; male, 1000 µmol/kg i.p.): 1/1; MTD at 2 weeks ([2]; as stated for the temperature study (Figure 4)): 135 mg/kg |
| O=C(O)CCc1nc2cc3c(cc2[n+]([O-])n1)CCC3 [M18] |  | 119 ± 3 |  |  |  | 392 | 183 | 960 | 173 | No decrease in body weight | 3/3 |  |  |  |  |  | 139 ± 6 | Body weight loss (NIH-III mice [3]; 36 mg/kg): no body weight loss was observed; Acute clinical signs and hypothermic response (NIH-III mice [3]; 36 mg/kg i.p. or i.v.): no acute clinical signs or hypothermic response were observed |
| [O-][n+]1nc(CCCN2CCOCC2)[n+]([O-])c2cc3c(cc21)CCC3 [SN30000, 3-(3-Morpholinopropyl)-7,8-dihydro-6H-indeno[5,6-e][1,2,4]triazine 1,4-dioxide] | ≤ 5 | 210 ± 9 | ~30 | 36.2 | 26.4 | 35.7 | 44.3 | 33.9 | 32.7 |  |  | 562 | 186 | strongly stimulated O2 consumption and H2O2 formation | increased | 0.52 | 217 ± 18 | MTD [4]: 90 mg/kg; Drop in rectal temperature at nadir, below controls (NIH-III mice [3]; i.p. MTD dose (186 mg/kg)): ~8 °C; Time of temperature nadir (NIH-III mice [3]; i.p. MTD dose (186 mg/kg)): approximately 30 min; Urinary excretion, % of administered dose (Urinary excretion; 18.6 mg/kg i.p.): 3.38 ± 0.03%; Urinary excretion, % of administered dose (Urinary excretion; 186 mg/kg i.p.): 5.64 ± 0.02%; Urinary excretion, % of injected dose (Urinary excretion; by 24 h, dose not stated): ~5% |

Source: publication PMC5554537 (Frontiers in Pharmacology, 2017)
